Measured values: ChEMBL document CHEMBL4699523, “Predicting the Human Hepatic Clearance of Acidic and Zwitterionic Drugs” (J Med Chem, 2020)

Tests used:
in vitro [1] = conditions: rat, plasma
Description: Fraction unbound in rat plasma

in vitro [2] = conditions: dog, MDCK, pH 7.4
Description: Apparent permeability in dog MDCKII-LE cells at pH 7.4

[3] = cynomolgus monkey, in vivo, iv, 1 mg/kg
[4] = human, in vivo, iv
Description: Hepatic clearance in human administered through iv dosing

[5] = rat, in vivo, iv, 1 mg/kg
in vitro [6] = conditions: human, plasma
Description: Fraction unbound in human plasma

in vitro [7] = conditions: human, cryopreserved hepatocytes
in vitro [8] = conditions: cynomolgus monkey, plasma
Description: Fraction unbound in cynomolgus monkey plasma

in vivo [9] = conditions: cynomolgus monkey, blood and plasma, iv
Description: Ratio of drug level in cynomolgus monkey blood to plasma administered through iv dosing by LC-MS/MS analysis

clinical = conditions: human, blood and plasma, iv
Description: Ratio of drug level in human blood to plasma administered through iv dosing by LC-MS/MS analysis

physchem [10] = experiment: physchem
physchem [11] = conditions: buffer, pH 7.4
physchem [12] = experiment: physchem; remark: listed apart in the source
in vivo [13] = conditions: Wistar Hannover, rat, blood and plasma, iv
Description: Ratio of drug level in Wistar Hannover rat blood to plasma administered through iv dosing by LC-MS/MS analysis

Row | fraction unbound (in vitro [1]) | Papp (in vitro [2]) [×10⁻⁶ cm/s] | CLH [3] [mL/min/kg] | CLH [4] [mL/min/kg] | CLH [5] [mL/min/kg] | fraction unbound (in vitro [6]) | CLint scaled at 2 h, 1 µM (in vitro [7]) [mL/min/kg] | fraction unbound (in vitro [8]) | blood plasma ratio (in vivo [9]) | blood plasma ratio (clinical) | pKa at 0.3 h (physchem [10]) | logD (physchem [11]) | pKa at 0.3 h (physchem [12]) | blood plasma ratio (in vivo [13]) | SMILES
1 | – | 12 | 19.5 | 2 | – | 0.0024 | 180 | 0.00288 | 0.561 | 0.654 | 5.3 | – | – | – | O=C(O)c1cccc(Cc2cc(Cl)ccc2OCc2ccc(Cl)cc2F)n1
2 | 0.0121 | 7.4 | 33.1 | 2.2 | 15.9 | 0.0285 | 16 | 0.0422 | 1.19 | 0.668 | 4.9 | 1.2 | – | 0.69 | COc1ccccc1Oc1c(NS(=O)(=O)c2ccc(C(C)(C)C)cc2)nc(-c2ncccn2)nc1OCCO [BOSENTAN]
3 | 0.0013 | 14 | 5.8 | 1.2 | 1.2 | 0.00217 | 69 | 0.00179 | – | – | – | – | – | – | COc1ccc(Cl)cc1C(=O)NCCc1ccc(S(=O)(=O)NC(=O)NC2CCCCC2)cc1 [GLYBURIDE]
4 | – | 6 | 1.3 | 0.57 | – | 0.004 | – | 0.004 | – | – | – | – | 2.3 | – | CC(C)(O)c1ccccc1CC[C@@H](SCC1(CC(=O)O)CC1)c1cccc(/C=C/c2ccc3ccc(Cl)cc3n2)c1 [MONTELUKAST]
5 | 0.0133 | – | 1.8 | 0.59 | 6 | – | 40 | 0.00164 | – | – | 6 | 2.3 | 2.9 | – | Nc1[nH]ncc1-c1cc(Cl)ccc1Oc1cc(F)c(S(=O)(=O)Nc2cscn2)cc1Cl [PF-05089771]
6 | – | – | – | 3.2 | 271 | – | – | – | – | – | – | 1.1 | – | – | CCN1CC(n2nccc2-c2cc(Cl)ccc2Oc2ccc(S(=O)(=O)Nc3cscn3)cc2C#N)C1 [PF-05150122]
7 | – | 0.8 | – | 1.3 | – | – | – | – | – | – | 4.1 | 0.8 | – | – | O=S(=O)(Nc1nncs1)c1cc(Cl)c(Oc2ccc(C(F)(F)F)cc2-c2ccnnc2)cc1F [PF-05186462]
8 | 0.001 | 3.9 | 30.1 | 5.7 | 3.1 | 0.002 | 37 | 0.002 | 0.56 | 0.56 | 3.6 | 2 | – | 0.55 | Cc1nn(-c2cnc(OCC(C)C)c(Cl)c2)c2ccc(C(=O)NS(C)(=O)=O)cc12 [PF-05241328]

The remaining lines, values behind:

Row | SMILES | fraction unbound (in vitro [1]) | Papp (in vitro [2]) [×10⁻⁶ cm/s] | CLH [3] [mL/min/kg] | CLH [4] [mL/min/kg] | CLH [5] [mL/min/kg] | fraction unbound (in vitro [6]) | CLint scaled at 2 h, 1 µM (in vitro [7]) [mL/min/kg] | fraction unbound (in vitro [8]) | blood plasma ratio (in vivo [9]) | blood plasma ratio (clinical) | pKa at 0.3 h (physchem [10]) | logD (physchem [11]) | pKa at 0.3 h (physchem [12]) | blood plasma ratio (in vivo [13])
9 | CCCCC(=O)N(Cc1ccc(-c2ccccc2-c2nnn[nH]2)cc1)[C@H](C(=O)O)C(C)C | 0.00302 | 0.32 | 8.4 | 0.35 | 5.1 | 0.00415 | 1.6 | 0.0145 | – | – | – | – | – | –
10 | CCCCc1nc(C)c(CC(=S)N(C)C)c(=O)n1Cc1ccc(-c2ccccc2-c2nnn[nH]2)cc1 | – | 1.2 | 23 | 9.6 | – | 0.0288 | 17 | 0.0177 | 0.588 | 0.726 | 4.3 | 0.9 | 2.7 | –
11 | CN(C)C(=O)CCS[C@H](SCCC(=O)O)c1cccc(/C=C/c2ccc3ccc(Cl)cc3n2)c1 | – | 8.5 | 10.1 | 0.91 | – | 0.00142 | 61 | 0.00116 | 0.581 | 0.655 | 4.4 | 1.5 | 3.8 | –
12 | COCc1c(C(C)C)nc(C(C)C)c(/C=C/[C@@H](O)C[C@@H](O)CC(=O)O)c1-c1ccc(F)cc1 [CERIVASTATIN] | 0.0179 | – | 19.7 | 2.7 | 8.7 | 0.0176 | 43 | 0.0153 | – | – | 4.7 | – | 5.6 | –
13 | CC(C)(C)OC(=O)N[C@H]1CCCCC/C=C\[C@@H]2C[C@@]2(C(=O)NS(=O)(=O)C2CC2)NC(=O)[C@@H]2C[C@@H](OC(=O)N3Cc4cccc(F)c4C3)CN2C1=O [DANOPREVIR] | – | 2.5 | 26.3 | 10.8 | – | 0.072 | – | 0.085 | 0.73 | 0.73 | – | – | – | –
14 | CCCCCN(CCCOC)C(=O)[C@@H](CCC(=O)O)NC(=O)c1ccc(Cl)c(Cl)c1 [DEXLOXIGLUMIDE] | – | 4.6 | 1.4 | 3.3 | – | 0.00969 | 26 | 0.00771 | 0.596 | 0.563 | 4.2 | 1.5 | – | –
15 | O=C(O)Cc1ccccc1Nc1c(Cl)cccc1Cl [DICLOFENAC] | 0.00598 | – | 10.8 | 4.1 | 17.5 | 0.00376 | 176 | 0.0047 | – | – | – | – | – | –
16 | CC(C)(C)NC(=O)[C@H]1CC[C@H]2[C@@H]3CC=C4C=C(C(=O)O)CC[C@]4(C)[C@H]3CC[C@]12C [EPRISTERIDE] | – | 20 | 1.5 | 0.33 | – | 0.0138 | 23 | 0.00917 | 0.55 | 0.55 | 4.6 | 3.4 | – | –
17 | CC(C)n1c(/C=C/C(O)CC(O)CC(=O)O)c(-c2ccc(F)cc2)c2ccccc21 (stereo unspecified) [FLUVASTATIN] | 0.009 | 11 | – | – | – | 0.00922 | – | – | – | – | 4.4 | 1.4 | – | –
18 | COc1ccc2c(c1)C(=O)N(CCc1ccc(S(=O)(=O)NC(=O)NC3CCCCC3)cc1)C(=O)C2(C)C [GLIQUIDONE] | – | 5.7 | 3.5 | 0.96 | – | 0.0035 | – | 0.0015 | 0.62 | 0.62 | – | – | – | –
19 | CC(C)Cc1ccc(C(C)C(=O)O)cc1 (stereo unspecified) [IBUPROFEN] | – | 33 | – | – | – | – | – | – | – | – | – | 1.1 | – | –
20 | CCCCC1=NC2(CCCC2)C(=O)N1Cc1ccc(-c2ccccc2-c2nnn[nH]2)cc1 [IRBESARTAN] | – | 8.6 | 12.1 | 2.1 | – | 0.0155 | – | 0.0126 | 0.55 | 0.603 | 3.5 | 1.3 | 4.6 | –
21 | O=C(c1ccccc1)c1ccc2n1CCC2C(=O)O (stereo unspecified) [KETOROLAC] | 0.0216 | 15 | 1.2 | 0.19 | 1.3 | 0.0264 | 3.1 | 0.0148 | 0.687 | 0.792 | – | -0.6 | – | 0.55
22 | O=C(O)c1ccc(NC(=O)[C@H](CC2CCCC2)n2cnc(C(F)(F)F)c2)nc1 [PF-04991532] | – | – | – | – | – | – | – | – | – | – | – | 0.7 | – | –
23 | CC[C@H](C)C(=O)O[C@H]1C[C@H](O)C=C2C=C[C@H](C)[C@H](CC[C@@H](O)C[C@@H](O)CC(=O)O)[C@H]21 [PRAVASTATIN] | 0.537 | 0.46 | 34.6 | 7.3 | 19.3 | 0.634 | 0.77 | 0.649 | 0.651 | 0.55 | 4.3 | -0.4 | – | 0.595
24 | CCOc1cc(CC(=O)N[C@@H](CC(C)C)c2ccccc2N2CCCCC2)ccc1C(=O)O [REPAGLINIDE] | – | 19 | 10.7 | 7.4 | – | 0.0124 | 98 | 0.0124 | 0.679 | 0.851 | 4.4 | 2.3 | 6 | –
25 | CC(C)c1nc(N(C)S(C)(=O)=O)nc(-c2ccc(F)cc2)c1/C=C/[C@@H](O)C[C@@H](O)CC(=O)O [ROSUVASTATIN] | 0.0421 | 0.89 | 27.9 | 6.8 | 28.4 | 0.158 | 0.86 | 0.155 | 0.735 | 0.569 | 4.3 | 0.1 | – | 0.588
26 | CCO[C@@H](Cc1ccc(OCCc2ccc(OS(C)(=O)=O)cc2)cc1)C(=O)O [TESAGLITAZAR] | – | – | 0.135 | 0.03 | – | 0.00273 | 4.7 | 0.00151 | 0.687 | 0.699 | 3.4 | -0.1 | – | –
